Legend:
[1] = tested on: SIV integrase I110V (SIV IN RTV pseudovirus); assay: organism not typed; format: cell-based; conditions: for EC50: HEK293
[2] = tested on: SIV integrase E92G (SIV IN RTV pseudovirus)
[3] = tested on: SIV integrase E92Q/G140R (SIV IN RTV pseudovirus); format: cell-based; conditions: E92Q/G140R SIV integrase mutant
[4] = tested on: SIV integrase G118R/A122T (SIV IN RTV pseudovirus); format: cell-based; conditions: G118R/A122T SIV integrase mutant
[5] = tested on: SIV integrase E92Q (SIV IN RTV pseudovirus); format: cell-based; conditions: E92Q SIV integrase mutant
[6] = tested on: SIV integrase G118R (SIV IN RTV pseudovirus); format: cell-based; conditions: G118R SIV integrase mutant
[7] = tested on: SIV integrase WT (SIV IN RTV pseudovirus); assay: organism not typed; format: cell-based; conditions: for EC50: HEK293; for fold-change relative to wild type integrase: WT SIV integrase
[8] = tested on: SIV integrase I72T (SIV IN RTV pseudovirus); assay: organism not typed; format: cell-based; conditions: for EC50: HEK293
[9] = tested on: SIV integrase I250V (SIV IN RTV pseudovirus); assay: organism not typed; format: cell-based; conditions: for EC50: HEK293
[10] = tested on: SIV integrase A122T (SIV IN RTV pseudovirus); assay: organism not typed; format: cell-based; conditions: for EC50: HEK293
[11] = tested on: SIV integrase G140R (SIV IN RTV pseudovirus); assay: organism not typed; format: cell-based; conditions: for EC50: HEK293
[12] = tested on: SIV integrase Q124R (SIV IN RTV pseudovirus); assay: organism not typed; format: cell-based; conditions: for EC50: HEK293
HIV integrase G140S/A/C = conditions: cited from earlier work

Structure (SMILES)	EC50 [1] [nM]	fold-change relative to wild type integrase [1] [fold]	EC50 [2] [nM]	fold-change relative to wild type integrase [2] [fold]	fold-change relative to wild type integrase [3]	fold-change relative to wild type integrase [4]	fold-change relative to wild type integrase [5] [fold]	fold-change relative to wild type integrase [6]	EC50 [7] [nM]	fold-change relative to wild type integrase [7] [fold]	EC50 [8] [nM]	fold-change relative to wild type integrase [8] [fold]	EC50 [9] [nM]	fold-change relative to wild type integrase [9] [fold]	EC50 [10] [nM]	fold-change relative to wild type integrase [10] [fold]	EC50 [11] [nM]	fold-change relative to wild type integrase [11]	EC50 [12] [nM]	fold-change relative to wild type integrase [12] [fold]	other results
O=C(NCc1c(F)cc(F)cc1F)c1cn2c(c(O)c1=O)C(=O)N1[C@H]3CC[C@H](C3)O[C@@H]1C2 [BIC, bictegravir]	1.78	1.8	4.29	4.3	>1000 (>1000) fold	>1000 (>1000) fold	2.0	>1000 (>1000) fold	1	1	1.51	1.5	1.56	1.6	2.1	2.1	> 1000	>1000 (>1000) fold	1.49	1.5	–
O=C1Nc2ccc(Cl)cc2[C@@](C#CC2CC2)(C(F)(F)F)O1 [EFV, efavirenz]	0.79	1.2	1.01	1.5	1.9 fold	1.1 fold	0.8	1.5 fold	0.67	1	0.6	0.9	0.67	1.0	0.77	1.2	0.59	0.9 fold	0.7	1.0	–
COc1cc2c(cc1Cc1cccc(Cl)c1F)c(=O)c(C(=O)O)cn2[C@H](CO)C(C)C [EVG, elvitegravir]	1.55	1.3	4.53	3.7	> 807 fold	> 807 fold	7.8	> 807 fold	1.24	1	1.17	0.9	1.45	1.2	1.15	0.9	> 1000	> 807 fold	1.59	1.3	fold reduced susceptibility of HIV with G140S/A/C (HIV integrase G140S/A/C): 10-100 fold
C[C@@H]1CCO[C@H]2Cn3cc(C(=O)NCc4ccc(F)cc4F)c(=O)c(O)c3C(=O)N12 [DTG, dolutegravir]	1.52	1.5	2.78	2.8	>1000 (>1000) fold	>1000 (>1000) fold	1.5	>1000 (>1000) fold	1	1	1.14	1.1	0.92	0.9	1.42	1.4	> 1000	>1000 (>1000) fold	1.62	1.6	fold reduced susceptibility of HIV with G140S/A/C (HIV integrase G140S/A/C): 10-100 fold
Cc1nnc(C(=O)NC(C)(C)c2nc(C(=O)NCc3ccc(F)cc3)c(O)c(=O)n2C)o1 [RAL, raltegravir]	3.8	1.3	8.07	2.8	> 345 fold	> 345 fold	3.6	> 345 fold	2.9	1	2.73	0.9	4	1.4	4.13	1.4	> 1000	> 345 fold	4.6	1.6	fold reduced susceptibility of HIV with G140S/A/C (HIV integrase G140S/A/C): 10-100 fold

Reference: article PMC6494879, “Drug resistance emergence in macaques administered cabotegravir long-acting for pre-exposure prophylaxis during acute SHIV infection” (Nature Communications, 2019)
